# Assay results from patent US6977141B2, “Direct adsorption scintillation assay for measuring enzyme activity and assaying biochemical processes” (Vicuron Pharmaceuticals Inc., priority 1998, dated 2005).
# Biological target: MurA (Escherichia coli, UniProt P0A749)
# Test: Direct adsorption scintillation assay (DASA) of the coupled MurA-MurB-MurC reaction, detection of enzyme inhibition
# Type: biochemical
# Protocol: A reaction mixture was prepared, of which 2 μl contains 38 ng MurA, 34 ng MurB, 34 ng MurC, 40 pmol ATP, 40 pmol UDP-NAcGlc, 40 pmol PEP, 40 pmol NADPH, 4 pmol L-[^3H]-alanine (72.3 Ci/mmol) in 50 mM Tris-HCl, pH 8, 20 mM MgCl2, 20 mM (NH4)2SO4, 1 mM DTT, 0.005% Brij-35. The mixture was incubated at room temperature for one hour. After one hour, 0.25 μl of the reaction mixture was transferred into each well of the poly-D-lysine coated FLASHPLATE™; each well contained 100 μl of 10 mM acetic acid, pH 3.0. The scintillation was counted using the TOPCOUNT™.
# Enzyme mixtures (with 60 ng MurA, 8 ng MurB and 60 ng MurC present in each 2 μl sample) were prepared. The enzyme-phosphomycin mixture was pre-incubated at room temperature for 30 minutes. The substrates, as prepared in Example 2, were then added to the mixture to start the reaction. After 30 minutes of reaction at room temperature, 0.25 μl of the reaction mixture was transferred into each well of the poly-D-lysine coated FLASHPLATE™; each well contained 100 μl of 10 mM acetic acid. The scintillation was counted using the TOPCOUNT™.
# Chain of MurA (P0A749 whole entry): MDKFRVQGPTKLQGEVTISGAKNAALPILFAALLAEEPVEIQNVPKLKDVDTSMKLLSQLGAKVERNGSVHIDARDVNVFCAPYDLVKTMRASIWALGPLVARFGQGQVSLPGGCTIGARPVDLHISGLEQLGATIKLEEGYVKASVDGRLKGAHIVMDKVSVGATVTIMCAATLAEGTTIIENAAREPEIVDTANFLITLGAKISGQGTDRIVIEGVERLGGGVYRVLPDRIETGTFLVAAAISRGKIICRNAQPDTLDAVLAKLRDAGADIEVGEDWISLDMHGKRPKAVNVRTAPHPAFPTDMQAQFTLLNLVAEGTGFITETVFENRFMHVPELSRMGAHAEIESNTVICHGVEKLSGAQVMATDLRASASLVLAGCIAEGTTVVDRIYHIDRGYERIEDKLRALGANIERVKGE
smiles,measurement,setting,value
C[C@@H]1O[C@@H]1P(=O)(O)O [phosphomycin],scintillation count with increasing inhibitor concentration (FIG. 3),"60 ng MurA, 8 ng MurB, 60 ng MurC per 2 μl, 30 min pre-incubation at room temperature without UDP-NAcGlc, 30 min reaction, poly-D-lysine coated FLASHPLATE",decreased scintillation count
same,IC50,"pre-incubation carried out in the absence of UDP-NAc-Glu, qualitative statement, no number given",relatively high
